Laboratory results as given in patent publication US10888569B1, “Methods and compositions for treating cancer” (THE UNIVERSITY OF CHICAGO, priority 2017, dated 2021).

Legend:
[1] = target: T1, BACH1 (Homo sapiens, UniProt O14867); test: Immunoblotting of BACH1 in cell lysates after hemin; assay type: cell-based; design: Protein blots of BACH1 levels in BM1 and MB436 cells treated with Hemin for 4 or 24 hours; endogenous in cells; host or cells: BM1 (MDA-MB-231 derivative), MDA-MB-436, BT549
T1 sequence (O14867 1-736): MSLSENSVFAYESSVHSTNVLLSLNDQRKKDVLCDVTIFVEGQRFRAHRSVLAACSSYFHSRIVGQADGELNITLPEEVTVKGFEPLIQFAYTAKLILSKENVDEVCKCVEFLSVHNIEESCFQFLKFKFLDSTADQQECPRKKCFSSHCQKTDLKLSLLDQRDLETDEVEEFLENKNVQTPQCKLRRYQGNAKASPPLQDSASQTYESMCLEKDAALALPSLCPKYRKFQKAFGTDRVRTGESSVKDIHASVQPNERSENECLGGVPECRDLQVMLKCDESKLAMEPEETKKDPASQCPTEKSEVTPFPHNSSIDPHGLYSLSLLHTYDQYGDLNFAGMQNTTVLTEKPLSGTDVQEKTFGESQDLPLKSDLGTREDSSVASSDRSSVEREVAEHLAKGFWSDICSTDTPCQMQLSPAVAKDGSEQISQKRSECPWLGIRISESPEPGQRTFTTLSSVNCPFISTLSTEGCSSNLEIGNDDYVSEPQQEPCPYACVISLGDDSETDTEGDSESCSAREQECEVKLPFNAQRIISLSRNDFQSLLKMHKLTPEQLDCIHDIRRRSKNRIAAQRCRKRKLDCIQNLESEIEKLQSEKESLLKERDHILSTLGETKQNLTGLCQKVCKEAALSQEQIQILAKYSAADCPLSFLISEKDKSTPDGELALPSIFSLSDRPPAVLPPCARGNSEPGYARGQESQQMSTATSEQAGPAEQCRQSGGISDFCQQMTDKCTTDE
Procedure: (§1) Whole cell lysates were prepared using RIPA buffer (Sigma) with protease inhibitor cocktails (1:100 ThermoFisher) and phosphatase inhibitors (SimpleStop1, Gold Biotechnology) at 4° C. and quantified using Bradford assays for western blotting using antibodies against BACH1 (sc-271211; Santa Cruz), and alpha-TUBULIN (sc-28199; Santa Cruz). Blots were imaged and processed using a Licor Odyssey Fc, dual-mode imaging system (Licor).

[2] = target: T1, BACH1; test: Immunoblotting of PDX tumor lysates: BACH1; assay type: in vivo, mouse; design: BACH1 protein blots using tumor lysates from representative mice of different TNBC models; from tissue; host or cells: TNBC patient-derived xenograft tumour in mammary fat pad of SCID-Beige mice; details: following hemin treatment
Procedure: as §1
(§2) For a patient-derived xenografts (PDX) model, frozen PDX tumors in 0.5 ml of sterile HBSS were prepared in a volume of 10-20 mm^3. In brief, tumor fragments were implanted into the mammary fat pads of 5 weeks old SCID-Beige mice following standard procedures. […] Tumor volume was measured by caliper weekly. Tumor weight was measured at the end of drug treatment. Tumor size was shown as mean+/_s.e.m. with significance (p-value) by paired Student's t-test. All the animals were also monitored regularly for body weights.

[3] = tested on: TNBC cells (BM1); test: Metabolic phenotypes OCR and ECAR (Seahorse analyzer); assay type: cell-based, human; details: hemin (pre-)treatment overnight
Procedure: TNBC cell lines stably knocked down with lenti-viral shRNA for BACH1 were constructed and maintained as described previously. Gene expression analysis of cultured cells and isolated tumor tissues used a Reverse transcriptase kit followed by Roche96 cycler for real time mRNA quantification and Lycor imaging for immunoblotting. For in vitro cell viability assay with mitochondrial inhibitors, TNBC cells (2×10^3-5×10^3/well) seeded on 96 well plates overnight with culture media (DMEM with 25 mM Glucose) were treated with inhibitors in fresh culture media (DMEM with 1.25 mM Glucose) for 48 and 72 hours and stained with calcein AM and/or monitored for cellular confluency using an IncuCyte Zoom Live Cell Analysis system. Extracellular flux analyzer was used to assay metabolic phenotypes of BACH1-depleted TNBC cells and TNBC cells that are treated with hemin overnight before assays. For bioinformatics analysis using primary patient data cohort (TCGA), cBioportal and R were used.
Extracellular acidification rates (ECAR) and oxygen consumption rates (OCR) were monitored by a Seahorse Bioscience Analyzer (XF24; Univ. of Illinois at Chicago and XFe96; Biophysics Core Facility at Univ. of Chicago). Cells were seeded in 24 well plates at a density of 5×10^4 and 96 well plates at a density of 8×10^3 cells per well with growth media for at least 18 hours. The following day, media was changed to base media (DMEM, 143 mM NaCl, Phenol red, pH 7.35). For ECAR analysis, cells were added with media (2 mM Glutamine, pH 7.35) and monitored every 3 minutes following successive administration of 10 mM of glucose, and inhibitors such as 1 μM of oligomycin and 50 mM of 2-DG. For OCR analysis, cells were added with mito stress test base media (10 mM Glucose, 2 mM Glutamine, 1 mM Pyruvate, pH 7.4) and monitored every 3 minutes following successive administration of inhibitors such as 2 μM of oligomycin, 2 μM of FCCP, and […] of Rotenone/AntimycinA. BCA protein assays were used to normalize metabolic rates to cell number.

[4] = tested on: BACH1-enriched TNBC PDX tumor; test: Patient-derived xenograft (PDX) model treated with hemin and metformin; assay type: in vivo, mouse; details: hemin 50 mg/kg/day i.p. and/or metformin 300 mg/kg/day; SCID-BEIGE mice
Procedure: as §2

[5] = tested on: pPDH (Ser293); test: Immunoblotting of PDX tumor lysates: pPDH (Ser293); assay type: in vivo, mouse; details: following hemin treatment

Question: Which results are given for `C=CC1=C(C)c2cc3[n-]c(cc4[n-]c(cc5nc(cc1n2)C(C)=C5C=C)c(C)c4CCC(=O)O)c(CCC(=O)O)c3C.[Cl-].[Fe+3]` [hemin, Chloro[3,7,12,17-tetramethyl-8,13-divinylporphyrin-2,18-dipropanoato(2-)]iron(III)]?
Answer: BACH1 levels ([1]; 20 μM hemin, cultured TNBC cells): effective at reducing BACH1 levels; BACH1 levels ([1]; hemin 10-80 μM, TNBC cells): effective at reducing BACH1 levels; BACH1 protein expression in PDX tumors [2]: depleted; ECAR [3]: lower basal ECAR; maximum OCR [3]: higher maximum OCR; spare respiratory capacity [3]: higher spare respiratory capacity; PDX tumor volume, weight, size compared to controls [4]: considerable reduction in tumor volumes; pPDH (Ser293) protein expression in PDX tumors [5]: depleted
